# Test results published in ChEMBL document CHEMBL3885861, “Open TG-GATES”.
# Species on record: Rattus norvegicus
# Assay: Open TG-GATES - Regimen: Daily Repeat
# Format: toxicity, organism-based, Sprague-Dawley
# Parameters: regimen Daily Repeat, gender Male, age 6 weeks
# Conditions: in vivo, po, 1000 mg/kg, route gavage, dose level High; for APTT / Bas / Eos / Fbg / Hb / Ht / Lym / MCH / MCHC / MCV / Mono / Neu / PT / Plat / RBC / Ret / WBC: tissue Blood; for KIDNEY_L / KIDNEY_R / KIDNEY_TOTAL: tissue Kidney; for LIVER: tissue Liver; for A/G / ALP / ALT / AST / BUN / CRE / Ca / Cl / DBIL / GLC / IP / K / LDH / Na / PL / RALB / TBIL / TC / TG / TP / gamma-GTP: tissue Plasma
smiles,measurement,setting,value
CC(=O)[C@@]1(O)CC[C@H]2[C@@H]3C=C(Cl)C4=CC(=O)CC[C@]4(C)[C@H]3CC[C@@]21C [CHLORMADINONE],TERMINAL_BW,"72 h, time 3 day",236.9 g
same,APTT,"72 h, time 3 day",28 s
same,Bas,"72 h, time 3 day",0%
same,Eos,"72 h, time 3 day",1.2%
same,Fbg,"72 h, time 3 day",321.4 mg/dL
same,Hb,"72 h, time 3 day",13.9 g/dL
same,Ht,"72 h, time 3 day",42%
same,Lym,"72 h, time 3 day",76.8%
same,MCH,"72 h, time 3 day",20.2 pg
same,MCHC,"72 h, time 3 day",33.1%
same,MCV,"72 h, time 3 day",61 fL
same,Mono,"72 h, time 3 day",3%
same,Neu,"72 h, time 3 day",18.2%
same,PT,"72 h, time 3 day",14.4 s
same,Plat,"72 h, time 3 day",126.4 x10_4/uL
same,RBC,"72 h, time 3 day",690 x10_4/ul
same,Ret,"72 h, time 3 day",6.9%
same,WBC,"72 h, time 3 day",122 x10_2/uL
same,KIDNEY_L,"72 h, time 3 day",1 g
same,KIDNEY_R,"72 h, time 3 day",1 g
same,KIDNEY_TOTAL,"72 h, time 3 day",2 g
same,LIVER,"72 h, time 3 day",12.4 g
same,A/G,"72 h, time 3 day",1.2
same,ALP,"72 h, time 3 day",1434.6 IU/L
same,ALT,"72 h, time 3 day",53 IU/L
same,AST,"72 h, time 3 day",71 IU/L
same,BUN,"72 h, time 3 day",17.4 mg/dL
same,CRE,"72 h, time 3 day",0.2 mg/dL
same,Ca,"72 h, time 3 day",11 mg/dL
same,Cl,"72 h, time 3 day",105.2 meq/L
same,DBIL,"72 h, time 3 day",0 mg/dL
same,GLC,"72 h, time 3 day",191.8 mg/dL
same,IP,"72 h, time 3 day",7.7 mg/dL
same,K,"72 h, time 3 day",4.8 meq/L
same,LDH,"72 h, time 3 day",190.2 IU/L
same,Na,"72 h, time 3 day",140.4 meq/L
same,PL,"72 h, time 3 day",198.4 mg/dL
same,RALB,"72 h, time 3 day",3.3 g/dL
same,TBIL,"72 h, time 3 day",0.004 mg/dL
same,TC,"72 h, time 3 day",95.2 mg/dL
same,TG,"72 h, time 3 day",154.2 mg/dL
same,TP,"72 h, time 3 day",6 g/dL
same,gamma-GTP,"72 h, time 3 day",2 IU/L
same,TERMINAL_BW,"[…], time 7 day",245 g
same,TERMINAL_BW,"[…], time 14 day",286.4 g
same,TERMINAL_BW,"[…], time 28 day",342.2 g
same,APTT,"[…], time 7 day",30 s
same,Bas,"[…], time 7 day",0%
same,Eos,"[…], time 7 day",0.8%
same,Fbg,"[…], time 7 day",327.6 mg/dL
same,Hb,"[…], time 7 day",15.1 g/dL
same,Ht,"[…], time 7 day",44.5%
same,Lym,"[…], time 7 day",84.4%
same,MCH,"[…], time 7 day",20.2 pg
same,MCHC,"[…], time 7 day",34%
same,MCV,"[…], time 7 day",59.5 fL
same,Mono,"[…], time 7 day",2.2%
same,Neu,"[…], time 7 day",11.8%
same,PT,"[…], time 7 day",15 s
same,Plat,"[…], time 7 day",127.9 x10_4/uL
same,RBC,"[…], time 7 day",748.8 x10_4/ul
same,Ret,"[…], time 7 day",3.8%
same,WBC,"[…], time 7 day",120.3 x10_2/uL
same,APTT,"[…], time 14 day",28.9 s
same,Bas,"[…], time 14 day",0%
same,Eos,"[…], time 14 day",1%
same,Fbg,"[…], time 14 day",322 mg/dL
same,Hb,"[…], time 14 day",15.2 g/dL
same,Ht,"[…], time 14 day",45%
same,Lym,"[…], time 14 day",80%
same,MCH,"[…], time 14 day",19.7 pg
same,MCHC,"[…], time 14 day",33.9%
same,MCV,"[…], time 14 day",58.1 fL
same,Mono,"[…], time 14 day",2.8%
same,Neu,"[…], time 14 day",14.4%
same,PT,"[…], time 14 day",14.7 s
same,Plat,"[…], time 14 day",100.3 x10_4/uL
same,RBC,"[…], time 14 day",774.6 x10_4/ul
same,Ret,"[…], time 14 day",2.6%
same,WBC,"[…], time 14 day",106.2 x10_2/uL
same,APTT,"[…], time 28 day",29.7 s
same,Bas,"[…], time 28 day",0%
same,Eos,"[…], time 28 day",1%
same,Fbg,"[…], time 28 day",308 mg/dL
same,Hb,"[…], time 28 day",15.8 g/dL
same,Ht,"[…], time 28 day",45.5%
same,Lym,"[…], time 28 day",86.4%
same,MCH,"[…], time 28 day",18.2 pg
same,MCHC,"[…], time 28 day",34.9%
same,MCV,"[…], time 28 day",52.1 fL
same,Mono,"[…], time 28 day",2.2%
same,Neu,"[…], time 28 day",9.6%
same,PT,"[…], time 28 day",15.1 s
same,Plat,"[…], time 28 day",91.7 x10_4/uL
same,RBC,"[…], time 28 day",873 x10_4/ul
same,Ret,"[…], time 28 day",1.9%
same,WBC,"[…], time 28 day",94.9 x10_2/uL
same,KIDNEY_L,"[…], time 7 day",1 g
same,KIDNEY_R,"[…], time 7 day",1 g
same,KIDNEY_TOTAL,"[…], time 7 day",1.9 g
same,KIDNEY_L,"[…], time 14 day",1.1 g
same,KIDNEY_R,"[…], time 14 day",1.1 g
same,KIDNEY_TOTAL,"[…], time 14 day",2.2 g
same,KIDNEY_L,"[…], time 28 day",1.2 g
same,KIDNEY_R,"[…], time 28 day",1.3 g
same,KIDNEY_TOTAL,"[…], time 28 day",2.5 g
same,LIVER,"[…], time 7 day",11 g
same,LIVER,"[…], time 14 day",13.1 g
same,LIVER,"[…], time 28 day",14.6 g
same,A/G,"[…], time 7 day",1.3
same,ALP,"[…], time 7 day",1456.8 IU/L
same,ALT,"[…], time 7 day",45.8 IU/L
same,AST,"[…], time 7 day",71.4 IU/L
same,BUN,"[…], time 7 day",19.6 mg/dL
same,CRE,"[…], time 7 day",0.2 mg/dL
same,Ca,"[…], time 7 day",10.8 mg/dL
same,Cl,"[…], time 7 day",106.8 meq/L
same,DBIL,"[…], time 7 day",0 mg/dL
same,GLC,"[…], time 7 day",187.2 mg/dL
same,IP,"[…], time 7 day",7.2 mg/dL
same,K,"[…], time 7 day",4.6 meq/L
same,LDH,"[…], time 7 day",194 IU/L
same,Na,"[…], time 7 day",140 meq/L
same,PL,"[…], time 7 day",163.8 mg/dL
same,RALB,"[…], time 7 day",3.3 g/dL
same,TBIL,"[…], time 7 day",0.006 mg/dL
same,TC,"[…], time 7 day",83.2 mg/dL
same,TG,"[…], time 7 day",136 mg/dL
same,TP,"[…], time 7 day",6 g/dL
same,gamma-GTP,"[…], time 7 day",2 IU/L
same,A/G,"[…], time 14 day",1.2
same,ALP,"[…], time 14 day",1187.6 IU/L
same,ALT,"[…], time 14 day",45.2 IU/L
same,AST,"[…], time 14 day",71.2 IU/L
same,BUN,"[…], time 14 day",18.6 mg/dL
same,CRE,"[…], time 14 day",0.2 mg/dL
same,Ca,"[…], time 14 day",10.7 mg/dL
same,Cl,"[…], time 14 day",107.6 meq/L
same,DBIL,"[…], time 14 day",0 mg/dL
same,GLC,"[…], time 14 day",195 mg/dL
same,IP,"[…], time 14 day",6.8 mg/dL
same,K,"[…], time 14 day",4.4 meq/L
same,LDH,"[…], time 14 day",160.8 IU/L
same,Na,"[…], time 14 day",142 meq/L
same,PL,"[…], time 14 day",171.2 mg/dL
same,RALB,"[…], time 14 day",3.3 g/dL
same,TBIL,"[…], time 14 day",0.004 mg/dL
same,TC,"[…], time 14 day",81.2 mg/dL
same,TG,"[…], time 14 day",177.4 mg/dL
same,TP,"[…], time 14 day",6.1 g/dL
same,gamma-GTP,"[…], time 14 day",2 IU/L
same,A/G,"[…], time 28 day",1
same,ALP,"[…], time 28 day",1076 IU/L
same,ALT,"[…], time 28 day",58.4 IU/L
same,AST,"[…], time 28 day",70.8 IU/L
same,BUN,"[…], time 28 day",17.4 mg/dL
same,CRE,"[…], time 28 day",0.2 mg/dL
same,Ca,"[…], time 28 day",10.5 mg/dL
same,Cl,"[…], time 28 day",105.2 meq/L
same,DBIL,"[…], time 28 day",0 mg/dL
same,GLC,"[…], time 28 day",194.8 mg/dL
same,IP,"[…], time 28 day",6.1 mg/dL
same,K,"[…], time 28 day",3.9 meq/L
same,LDH,"[…], time 28 day",156 IU/L
same,Na,"[…], time 28 day",142 meq/L
same,PL,"[…], time 28 day",190.4 mg/dL
same,RALB,"[…], time 28 day",3.4 g/dL
same,TBIL,"[…], time 28 day",0.006 mg/dL
same,TC,"[…], time 28 day",97.6 mg/dL
same,TG,"[…], time 28 day",161.6 mg/dL
same,TP,"[…], time 28 day",6.6 g/dL
same,gamma-GTP,"[…], time 28 day",2.6 IU/L
